System: angioedema in CSU patients
Experiment: Phase 2 CSU study: angioedema activity score over 7 days (AAS7)
Format: in vivo, human
Settings: 400 mg QPM; for AAS7 = 0, Non-responder n (%) / AAS7 = 0, OR (95% CI) for rilzabrutinib vs. placebo / AAS7 = 0, RRD (%) for rilzabrutinib vs. placebo (95% CI) / AAS7 Post-baseline Mean (SD) / Participants with AAS7 = 0, Responder n (%) / AAS7 % Change difference for rilzabrutinib vs. placebo LS Mean (95% CI) / AAS7 % Change from baseline LS Mean (SE) / AAS7 Change difference for rilzabrutinib vs. placebo LS Mean (95% CI) / AAS7 Change from baseline LS Mean (SE): angioedema at baseline; for Non-responder n (%), AAS7 = 0 / OR (95% CI) for rilzabrutinib vs. placebo, AAS7 = 0 / RRD (%) for rilzabrutinib vs. placebo (95% CI), AAS7 = 0 / Responder n (%), AAS7 = 0: outlier removed
Text: The study comprises a 12 week, randomized, double-blind, placebo-controlled, multi-center, dose-ranging efficacy and safety phase, followed by a 40 week open label extension (OLE) phase (see FIG. 1). The study consists of three phases and an optional OLE phase. […] The weekly angioedema activity score (AAS7) was proposed as a tertiary endpoint. […] Patients were to complete the AAS using the e-diary. The e-diary was to be used once daily on the same time of each day recording of participant's answers to the angioedema activity score over 7 days (AAS7) questionnaire.

## CC(C)(C=C(C#N)C(=O)N1CCC[C@@H](n2nc(-c3ccc(Oc4ccccc4)cc3F)c3c(N)ncnc32)C1)N1CCN(C2COC2)CC1 [rilzabrutinib, (R)-2-[3-[4-amino-3-(2-fluoro-4-phenoxy-phenyl)pyrazolo[3,4-d]pyrimidin-1-yl]piperidine-1-carbonyl]-4-methyl-4-[4-(oxetan-3-yl)piperazin-1-yl]pent-2-enenitrile]
Week 4, omalizumab-naïve
  AAS7 = 0, Non-responder n (%): 21 (77.8) n (%)
  AAS7 = 0, OR (95% CI) for rilzabrutinib vs. placebo: 0.869
  AAS7 = 0, RRD (%) for rilzabrutinib vs. placebo (95% CI): −2.4 %
  AAS7 Post-baseline Mean (SD): 29.55 (20.68)
  Participants with AAS7 = 0, Responder n (%): 6 (22.2) n (%)
Week 5, ITT
  AAS7 % Change difference for rilzabrutinib vs. placebo LS Mean (95% CI): −0.88 (−26.37, 24.61) %
  AAS7 % Change from baseline LS Mean (SE): −54.71 (9.56) %
  AAS7 Change difference for rilzabrutinib vs. placebo LS Mean (95% CI): 1.56 (−9.31, 12.42)
  AAS7 Change from baseline LS Mean (SE): −28.04 (4.08)
  AAS7 Post-baseline Mean (SD): 25.01 (22.48)
Week 5, omalizumab-naïve
  Non-responder n (%), AAS7 = 0: 21 (56.8) n (%)
  OR (95% CI) for rilzabrutinib vs. placebo, AAS7 = 0: 0.872
  RRD (%) for rilzabrutinib vs. placebo (95% CI), AAS7 = 0: −3.4 %
  Responder n (%), AAS7 = 0: 16 (43.2) n (%)
  AAS7 % Change difference for rilzabrutinib vs. placebo LS Mean (95% CI): −1.04 (−28.01, 25.93) %
  AAS7 % Change from baseline LS Mean (SE): −55.66 (9.83) %
  AAS7 = 0, Non-responder n (%): 19 (70.4) n (%)
  AAS7 = 0, OR (95% CI) for rilzabrutinib vs. placebo: 1.079
  AAS7 = 0, RRD (%) for rilzabrutinib vs. placebo (95% CI): 1.6 %
  AAS7 Post-baseline Mean (SD): 24.55 (22.80)
  Participants with AAS7 = 0, Responder n (%): 8 (29.6) n (%)
Week 6, ITT
  AAS7 % Change difference for rilzabrutinib vs. placebo LS Mean (95% CI): 1.19 (−25.36, 27.75) %
  AAS7 % Change from baseline LS Mean (SE): −46.12 (9.92) %
  AAS7 Change from baseline LS Mean (SE): −25.61 (4.32)
  AAS7 Post-baseline Mean (SD): 27.97 (22.56)
Week 6, omalizumab-naïve
  Non-responder n (%), AAS7 = 0: 24 (64.9) n (%)
  OR (95% CI) for rilzabrutinib vs. placebo, AAS7 = 0: 0.606
  RRD (%) for rilzabrutinib vs. placebo (95% CI), AAS7 = 0: −11.4 %
  Responder n (%), AAS7 = 0: 13 (35.1) n (%)
  AAS7 % Change difference for rilzabrutinib vs. placebo LS Mean (95% CI): 2.62 (−26.14, 31.38) %
  AAS7 = 0, Non-responder n (%): 23 (85.2) n (%)
  AAS7 = 0, OR (95% CI) for rilzabrutinib vs. placebo: 0.437
  AAS7 = 0, RRD (%) for rilzabrutinib vs. placebo (95% CI): −13.0 %
  AAS7 Post-baseline Mean (SD): 28.26 (23.00)
  Participants with AAS7 = 0, Responder n (%): 4 (14.8) n (%)
Week 7, ITT
  AAS7 % Change difference for rilzabrutinib vs. placebo LS Mean (95% CI): 16.32 (−13.52, 46.16) %
  AAS7 Change difference for rilzabrutinib vs. placebo LS Mean (95% CI): 4.35 (−7.06, 15.76)
  AAS7 Change from baseline LS Mean (SE): −22.95 (4.29)
  AAS7 Post-baseline Mean (SD): 31.05 (21.43)
Week 7, omalizumab-naïve
  Non-responder n (%), AAS7 = 0: 24 (64.9) n (%)
  OR (95% CI) for rilzabrutinib vs. placebo, AAS7 = 0: 0.611
  RRD (%) for rilzabrutinib vs. placebo (95% CI), AAS7 = 0: −11.8 %
  Responder n (%), AAS7 = 0: 13 (35.1) n (%)
  AAS7 % Change difference for rilzabrutinib vs. placebo LS Mean (95% CI): 19.61 (−12.44, 51.65) %
  AAS7 = 0, OR (95% CI) for rilzabrutinib vs. placebo: 0.200
  AAS7 = 0, RRD (%) for rilzabrutinib vs. placebo (95% CI): −23.0 %
  AAS7 Post-baseline Mean (SD): 31.88 (21.51)
Week 8, ITT
  AAS7 % Change difference for rilzabrutinib vs. placebo LS Mean (95% CI): −2.51 (−32.23, 27.22) %
  AAS7 Change difference for rilzabrutinib vs. placebo LS Mean (95% CI): −1.74 (−12.55, 9.06)
  AAS7 Change from baseline LS Mean (SE): −30.07 (4.07)
  AAS7 Post-baseline Mean (SD): 24.69 (22.82)
Week 8, omalizumab-naïve
  Non-responder n (%), AAS7 = 0: 20 (54.1) n (%)
  OR (95% CI) for rilzabrutinib vs. placebo, AAS7 = 0: 1.185
  RRD (%) for rilzabrutinib vs. placebo (95% CI), AAS7 = 0: 4.2 %
  Responder n (%), AAS7 = 0: 17 (45.9) n (%)
  AAS7 % Change difference for rilzabrutinib vs. placebo LS Mean (95% CI): −4.14 (−36.36, 28.09) %
  AAS7 = 0, Non-responder n (%): 20 (74.1) n (%)
  AAS7 = 0, OR (95% CI) for rilzabrutinib vs. placebo: 0.929
  AAS7 = 0, RRD (%) for rilzabrutinib vs. placebo (95% CI): −1.3 %
  AAS7 Post-baseline Mean (SD): 24.98 (23.29)
  Participants with AAS7 = 0, Responder n (%): 7 (25.9) n (%)
Week 9, ITT
  AAS7 % Change difference for rilzabrutinib vs. placebo LS Mean (95% CI): 1.53 (−27.52, 30.59) %
  AAS7 % Change from baseline LS Mean (SE): −48.50 (10.95) %
  AAS7 Change difference for rilzabrutinib vs. placebo LS Mean (95% CI): 2.98 (−7.44, 13.40)
  AAS7 Change from baseline LS Mean (SE): −26.47 (3.93)
  AAS7 Post-baseline Mean (SD): 27.24 (21.46)
Week 9, omalizumab-naïve
  Non-responder n (%), AAS7 = 0: 24 (64.9) n (%)
  OR (95% CI) for rilzabrutinib vs. placebo, AAS7 = 0: 0.520
  RRD (%) for rilzabrutinib vs. placebo (95% CI), AAS7 = 0: −15.0 %
  Responder n (%), AAS7 = 0: 13 (35.1) n (%)
  AAS7 % Change from baseline LS Mean (SE): −47.25 (11.58) %
  AAS7 = 0, Non-responder n (%): 22 (81.5) n (%)
  AAS7 = 0, OR (95% CI) for rilzabrutinib vs. placebo: 0.431
  AAS7 = 0, RRD (%) for rilzabrutinib vs. placebo (95% CI): −15.5 %
  AAS7 Post-baseline Mean (SD): 27.96 (21.62)
  Participants with AAS7 = 0, Responder n (%): 5 (18.5) n (%)
Week 10, ITT
  AAS7 % Change difference for rilzabrutinib vs. placebo LS Mean (95% CI): −1.14 (−41.08, 38.79) %
  AAS7 % Change from baseline LS Mean (SE): −50.13 (14.94) %
  AAS7 Change difference for rilzabrutinib vs. placebo LS Mean (95% CI): 2.53 (−8.76, 13.81)
  AAS7 Change from baseline LS Mean (SE): −27.81 (4.28)
  AAS7 Post-baseline Mean (SD): 26.59 (23.15)
Week 10, omalizumab-naïve
  Non-responder n (%), AAS7 = 0: 20 (54.1) n (%)
  OR (95% CI) for rilzabrutinib vs. placebo, AAS7 = 0: 0.927
  RRD (%) for rilzabrutinib vs. placebo (95% CI), AAS7 = 0: −1.9 %
  Responder n (%), AAS7 = 0: 17 (45.9) n (%)
  AAS7 = 0, Non-responder n (%): 20 (74.1) n (%)
  AAS7 = 0, OR (95% CI) for rilzabrutinib vs. placebo: 0.616
  AAS7 = 0, RRD (%) for rilzabrutinib vs. placebo (95% CI): −9.2 %
  AAS7 Post-baseline Mean (SD): 27.70 (22.96)
  Participants with AAS7 = 0, Responder n (%): 7 (25.9) n (%)
Week 11, ITT
  AAS7 % Change difference for rilzabrutinib vs. placebo LS Mean (95% CI): 7.61 (−19.90, 35.12) %
  AAS7 Change difference for rilzabrutinib vs. placebo LS Mean (95% CI): 5.18 (−6.05, 16.41)
  AAS7 Change from baseline LS Mean (SE): −28.68 (4.16)
  AAS7 Post-baseline Mean (SD): 26.34 (24.19)
Week 11, omalizumab-naïve
  Non-responder n (%), AAS7 = 0: 20 (54.1) n (%)
  OR (95% CI) for rilzabrutinib vs. placebo, AAS7 = 0: 0.819
  RRD (%) for rilzabrutinib vs. placebo (95% CI), AAS7 = 0: −4.7 %
  Responder n (%), AAS7 = 0: 17 (45.9) n (%)
  AAS7 = 0, Non-responder n (%): 19 (70.4) n (%)
  AAS7 = 0, OR (95% CI) for rilzabrutinib vs. placebo: 0.650
  AAS7 = 0, RRD (%) for rilzabrutinib vs. placebo (95% CI): −8.6 %
  AAS7 Post-baseline Mean (SD): 27.44 (24.07)
  Participants with AAS7 = 0, Responder n (%): 8 (29.6) n (%)
Week 12, ITT
  AAS7 % Change difference for rilzabrutinib vs. placebo LS Mean (95% CI): 8.18 (−17.80, 34.16) %
  AAS7 % Change from baseline LS Mean (SE): −54.80 (9.75) %
  AAS7 Change difference for rilzabrutinib vs. placebo LS Mean (95% CI): 6.68 (−4.00, 17.35)
  AAS7 Change from baseline LS Mean (SE): −28.63 (4.01)
  AAS7 Post-baseline Mean (SD): 24.92 (22.92)
Week 12, omalizumab-naïve
  Non-responder n (%), AAS7 = 0: 24 (64.9) n (%)
  OR (95% CI) for rilzabrutinib vs. placebo, AAS7 = 0: 0.516
  RRD (%) for rilzabrutinib vs. placebo (95% CI), AAS7 = 0: −15.0 %
  Responder n (%), AAS7 = 0: 13 (35.1) n (%)
  AAS7 = 0, Non-responder n (%): 21 (77.8) n (%)
  AAS7 = 0, OR (95% CI) for rilzabrutinib vs. placebo: 0.571
  AAS7 = 0, RRD (%) for rilzabrutinib vs. placebo (95% CI): −11.2 %
  AAS7 Change difference for rilzabrutinib vs. placebo LS Mean (95% CI): 6.41 (−5.00, 17.81)
  AAS7 Change from baseline LS Mean (SE): −26.98 (4.16)
  AAS7 Post-baseline Mean (SD): 25.87 (23.04)
